According to patent US6103733A, “Method for increasing HDL cholesterol levels using heteroaromatic phenylmethanes” (priority 1998, dated 2000):
Where two headings read alike, the source gives them in different places.

How the values were obtained:
[1] = tested on: CYP3A; conditions: human hepatocytes; cited from earlier work
[2] = tested on: CYP3A; conditions: rats; cited from earlier work
[3] = Liver/body weight ratio after administration over several days; format: in vivo; conditions: rats, indirect sign of increased cytochrome P450 content
Method: (§1) A correlation between induction of CYP3A and an increase in serum HDL-cholesterol was supported by our early experiments in which selective CYP3A inducers (Clotrimazole, dexamethasone) were administered to rats over a period of several days, and the effect on liver/body weight ratios and on HDL-cholesterol/total cholesterol ratios determined. […] A positive relationship between cytochrome P450 induction and improvement of serum lipid levels was also found.

[4] = tested on: HDL2; test: HDL2/total cholesterol ratio after administration over several days; format: in vivo; conditions: pretreated rats; in words
Method: as §1

[5] = tested on: HDL-cholesterol; test: Serum HDL-cholesterol level after feeding of the compound over 8 days; format: in vivo; conditions: feeding over 8 days, rats; in words
From the text: FIG. 2 represents a fold increase of HDL-cholesterol per compound;
We have invented a family of related compounds which cause a significant pharmacological elevation of serum high density lipoprotein (HDL-cholesterol) concentration from 20% to greater than 200%. […] The effect on HDL cholesterol was paralleled by an elevation in the level of apoprotein A1 (a protein component of HDL) and by elevation of apo A1 messenger RNA in treated animals.
The effect of CYP3A inducers on levels of HDL-cholesterol was determined by administration of the compound by feeding over 8 days followed by sacrifice of the animal and determination of HDL-cholesterol levels. The effects of benzylimidazole (IV), clotrimazole, the five high magnitude CYP3A inducers and four compounds showing intermediate CYP3A inducing activity were evaluated. […] The significant linear correlation between the increase in HDL-cholesterol and the increase in ethosuximide clearance is shown in FIG. 3, and supports the belief that the activities are related.

[6] = tested on: CYP3A; test: CYP3A induction measured as increase in rate of ethosuximide clearance after 8-day pretreatment; format: in vivo, rats; conditions: for CYP3A activity induced compared with clotrimazole (Compound (III)): measured by ethosuximide clearance, in words; for increase in ethosuximide clearance: 8-day pretreatment, rats
Method: FIG. 1 represents a fold increase in ethosuxinide clearances following an 8-day pretreatment schedule of the azoles;
Using clotrimazole (Compound (III)) as a lead compound, the effect of structure on the ability of a compound to induce CYP3A activity was determined, as measured by the test compound's ability to increase the rate of ethosuximide clearance. Over 40 structural modifications of clotrimazole were tested and significant differences in the ability to induce CYP3A activity was observed.
Analysis of the effect of substitution on the ability of a compound to induce CYP3A activity enables us to propose requirements for the induction in vivo. First, a heteroaromatic nucleus containing basic nitrogen must be present. Significant activity (i.e. >2 fold increase in ethosuximide clearance) is achieved only using substituted imidazoles, 2-methylimidazole (XIV), or in one case, pyridine (XVI). […] A variety of substituents were introduced into a single aryl ring of triphenylmethylimidazole. Most of the monosubstituted 1-triphenylmethylimidazoles produced inducing activity lower than that measured for the unsubstituted member of the series, regardless of the nature of the substituent. High magnitude CYP3A induction (i.e. >3-fold increase in ethosuximide clearance was found in only four substituted triphenylmethyl imidazoles: (XXXI)(meta-chloro). (XXXIII)(para chloro), (XXXVIII)(metafluoro).

[7] = tested on: HDL-cholesterol; conditions: epileptic subjects vs matched patients without epilepsy; phenobarbital and/or phenytoin; cited from earlier work
[8] = tested on: cytochromes P450; conditions: cited from earlier work
[9] = tested on: HDL cholesterol; conditions: prospective experiments; cited from earlier work
[10] = tested on: HDL-cholesterol; conditions: rats; cited from earlier work
[11] = tested on: apoA1; conditions: rats; cited from earlier work

SMILES: Clc1ccccc1C(c1ccccc1)(c1ccccc1)n1ccnc1 [III]
- inducer of CYP3A [1]: relatively selective inducer
- inducer of CYP3A [2]: relatively selective inducer
- liver/body weight ratio [3]: markedly increased liver/body weight ratios
- HDL2/total cholesterol ratio [4]: noteworthy improvement in HDL2/total cholesterol ratios
- effect on HDL-cholesterol [5]: significant effect on HDL-cholesterol

SMILES: c1ccc(C(c2ccccc2)(c2ccccc2)n2ccnc2)cc1 [V, 1-triphenylmethylimidazole]
- CYP3A activity induced compared with clotrimazole (Compound (III)) [6]: significantly more CYP3A activity than did the lead compound

SMILES: c1ccc(C(c2ccccc2)n2ccnc2)cc1 [XIII, 1-diphenylmethylimidazole]
- CYP3A inducing activity ([6]; structure-activity statement in words, ethosuximide clearance): progressively lost

SMILES: Cc1nccn1C(c1ccccc1)(c1ccccc1)c1ccccc1 [XIV]
- increase in ethosuximide clearance [6]: > 2 fold

SMILES: c1ccc(Cc2ccncc2)cc1 [XVI]
- increase in ethosuximide clearance [6]: > 2 fold

SMILES: Clc1ccc(C(c2ccccc2)(c2ccccc2)n2ccnc2)cc1 [XXXIII]
- increase in ethosuximide clearance [6]: > 3 fold
- CYP3A activity induced compared with clotrimazole (Compound (III)) [6]: significantly more CYP3A activity than did the lead compound

SMILES: Fc1ccc(C(c2ccccc2)(c2ccccc2)n2ccnc2)cc1 [XXXIX]
- CYP3A activity induced compared with clotrimazole (Compound (III)) [6]: significantly more CYP3A activity than did the lead compound

SMILES: Clc1cccc(C(c2ccccc2)(c2ccccc2)n2ccnc2)c1 [XXXI]
- increase in ethosuximide clearance [6]: > 3 fold
- CYP3A activity induced compared with clotrimazole (Compound (III)) [6]: significantly more CYP3A activity than did the lead compound

SMILES: Fc1cccc(C(c2ccccc2)(c2ccccc2)n2ccnc2)c1 [XXXVIII]
- increase in ethosuximide clearance [6]: > 3 fold
- CYP3A activity induced compared with clotrimazole (Compound (III)) [6]: significantly more CYP3A activity than did the lead compound

SMILES: C[C@@H]1C[C@H]2[C@@H]3CCC4=CC(=O)C=C[C@]4(C)[C@@]3(F)[C@@H](O)C[C@]2(C)[C@@]1(O)C(=O)CO [dexamethasone]
- liver/body weight ratio [3]: markedly increased liver/body weight ratios
- HDL2/total cholesterol ratio [4]: noteworthy improvement in HDL2/total cholesterol ratios

SMILES: CCC1(c2ccccc2)C(=O)NC(=O)NC1=O [phenobarbital]
- levels of HDL-cholesterol [7]: higher levels of HDL-cholesterol
- inducer of the cytochromes P450 [8]: known to be an inducer of the cytochromes P450
- total serum HDL cholesterol/total cholesterol ratio [9]: increases in total serum HDL cholesterol/total cholesterol ratios
- HDL-cholesterol [10]: increase HDL-cholesterol
- apoA1 [11]: increase HDL-cholesterol and apoA1 in rats

SMILES: O=C1NC(=O)C(c2ccccc2)(c2ccccc2)N1 [phenytoin]
- levels of HDL-cholesterol [7]: higher levels of HDL-cholesterol
